According to ChEMBL document CHEMBL4118281, “Azoalkyl ether imidazo[2,1-b]benzothiazoles as potentially antimicrobial agents with novel structural skeleton” (2018):
In brackets after ≈: the same amount, converted by molar mass.

Experiments:
[1] = test system: Bacillus subtilis; experiment: Antibacterial activity against Bacillus subtilis after 24 hrs by micro broth dilution method; assay type: functional
[2] = test system: Bacillus; experiment: Antibacterial activity against Bacillus proteus ATCC 13315 after 24 hrs by micro broth dilution method; assay type: functional; conditions: ATCC 13315, 24 h
[3] = test system: Escherichia coli; experiment: Antibacterial activity against Escherichia coli JM109 after 24 hrs by micro broth dilution method; assay type: functional; conditions: JM109, 24 h
[4] = test system: Candida albicans; experiment: Antifungal activity against Candida albicans after 24 hrs by two fold serial dilution based spectrophotometric analysis; assay type: functional
[5] = test system: Cyberlindnera jadinii; experiment: Antifungal activity against Candida utilis after 24 hrs by two fold serial dilution based spectrophotometric analysis; assay type: functional; conditions: Williopsis jadinii
[6] = test system: Saccharomyces cerevisiae; experiment: Antifungal activity against Beer yeast after 24 hrs by two fold serial dilution based spectrophotometric analysis; assay type: functional
[7] = test system: Shigella dysenteriae; experiment: Antibacterial activity against Shigella dysenteriae after 24 hrs by micro broth dilution method; assay type: functional
[8] = test system: Staphylococcus aureus; experiment: Antibacterial activity against methicillin-resistant Staphylococcus aureus N315 after 24 hrs by micro broth dilution method; assay type: functional; conditions: N315, 24 h
[9] = test system: Shigella dysenteriae; experiment: Potency index, ratio of norfloxacin MIC to compound MIC for Shigella dysenteriae; assay type: functional
[10] = test system: Escherichia coli; experiment: Antibacterial activity against Escherichia coli DH52 after 24 hrs by micro broth dilution method; assay type: functional; conditions: DH52, 24 h
[11] = test system: Salmonella typhi; experiment: Antibacterial activity against Bacillus typhi after 24 hrs by micro broth dilution method; assay type: functional, Salmonella enterica subsp. enterica serovar Typhi; conditions: Salmonella enterica
[12] = test system: Micrococcus luteus; experiment: Antibacterial activity against Micrococcus luteus ATCC 4698 after 24 hrs by micro broth dilution method; assay type: functional; conditions: NCTC 2665, 24 h
[13] = test system: Staphylococcus aureus; experiment: Antibacterial activity against Staphylococcus aureus ATCC 25923 after 24 hrs by micro broth dilution method; assay type: functional; conditions: ATCC 25923, 24 h
[14] = test system: Pichia norvegensis; experiment: Antifungal activity against Candida mycoderma after 24 hrs by two fold serial dilution based spectrophotometric analysis; assay type: functional
[15] = test system: Aspergillus flavus; experiment: Antifungal activity against Aspergillus flavus after 24 hrs by two fold serial dilution based spectrophotometric analysis; assay type: functional
[16] = test system: Aspergillus flavus; experiment: Potency index, ratio of fluconazole MIC to compound MIC for Aspergillus flavus; assay type: functional
[17] = test system: Shigella dysenteriae; experiment: Potency index, ratio of chloromycin MIC to compound MIC for Shigella dysenteriae; assay type: functional
[18] = test system: Pseudomonas aeruginosa; experiment: Antibacterial activity against Pseudomonas aeruginosa after 24 hrs by micro broth dilution method; assay type: functional

Structure (SMILES)	MIC [1] [µg/mL]	MIC [2] [µg/mL]	MIC [3] [µg/mL]	MIC [4] [µg/mL]	MIC [5] [µg/mL]	MIC [6] [µg/mL]	MIC [7] [µg/mL]	MIC [8] [µg/mL]	Ratio [9]	MIC [10] [µg/mL]	MIC [11] [µg/mL]	MIC [12] [µg/mL]	MIC [13] [µg/mL]	MIC [14] [µg/mL]	MIC [15] [µg/mL]	Ratio [16]	Ratio [17]	MIC [18] [µg/mL]
BrCCCOCc1c(-c2ccccc2)nc2sc3ccccc3n12	4 (≈ 9.97 µM)	16 (≈ 39.9 µM)	32 (≈ 79.7 µM)	4 (≈ 9.97 µM)	64 (≈ 159 µM)	8 (≈ 19.9 µM)	4 (≈ 9.97 µM)	8 (≈ 19.9 µM)	4	16 (≈ 39.9 µM)	16 (≈ 39.9 µM)	32 (≈ 79.7 µM)	32 (≈ 79.7 µM)	32 (≈ 79.7 µM)	4 (≈ 9.97 µM)	64	4	8 (≈ 19.9 µM)
CCOc1ccc2c(c1)sc1nc(-c3ccccc3)c(COCCCCCCCCCCn3cnc([N+](=O)[O-])c3)n12	32 (≈ 55.6 µM)	256 (≈ 445 µM)	512 (≈ 889 µM)	256 (≈ 445 µM)	512 (≈ 889 µM)	256 (≈ 445 µM)	8 (≈ 13.9 µM)	32 (≈ 55.6 µM)	–	64 (≈ 111 µM)	32 (≈ 55.6 µM)	512 (≈ 889 µM)	128 (≈ 222 µM)	128 (≈ 222 µM)	64 (≈ 111 µM)	–	–	32 (≈ 55.6 µM)
CCOc1ccc2c(c1)sc1nc(-c3ccccc3)c(COCCCCCCCCCCn3c([N+](=O)[O-])cnc3C)n12	32 (≈ 54.3 µM)	256 (≈ 434 µM)	512 (≈ 868 µM)	128 (≈ 217 µM)	256 (≈ 434 µM)	64 (≈ 109 µM)	16 (≈ 27.1 µM)	128 (≈ 217 µM)	–	256 (≈ 434 µM)	256 (≈ 434 µM)	512 (≈ 868 µM)	128 (≈ 217 µM)	256 (≈ 434 µM)	512 (≈ 868 µM)	–	–	128 (≈ 217 µM)
CCOc1ccc2c(c1)sc1nc(-c3ccccc3)c(COCCCn3cnc([N+](=O)[O-])c3)n12	256 (≈ 536 µM)	512 (≈ 1070 µM)	256 (≈ 536 µM)	16 (≈ 33.5 µM)	128 (≈ 268 µM)	> 512	256 (≈ 536 µM)	512 (≈ 1070 µM)	–	512 (≈ 1070 µM)	256 (≈ 536 µM)	256 (≈ 536 µM)	128 (≈ 268 µM)	32 (≈ 67 µM)	32 (≈ 67 µM)	–	–	512 (≈ 1070 µM)
O=[N+]([O-])c1cn(CCCOCc2c(-c3ccccc3)nc3sc4ccccc4n23)cn1	2 (≈ 4.61 µM)	4 (≈ 9.23 µM)	8 (≈ 18.5 µM)	2 (≈ 4.61 µM)	128 (≈ 295 µM)	64 (≈ 148 µM)	8 (≈ 18.5 µM)	8 (≈ 18.5 µM)	–	4 (≈ 9.23 µM)	32 (≈ 73.8 µM)	256 (≈ 591 µM)	4 (≈ 9.23 µM)	32 (≈ 73.8 µM)	16 (≈ 36.9 µM)	–	–	2 (≈ 4.61 µM)
